Test results from patent US20200254065A1, “LONG-ACTING GLP-2 ANALOGS” (OPKO Biologics Ltd., priority 2019, published 2020).
“Also recorded” adds a separate entry of the source. Square brackets hold non-standard residues; d marks the D form. Peptide text beside a SMILES is read from it. Nle = CCCC[C@H](N)C(=O)O

What was measured:
[1] = PK after single SC injection in rats (LC-MS/MS); details: rat, in vivo, 2 mg/kg
Procedure: To support the pharmacodynamic effects of V4 and Cys-FMS-V4 as detailed in Example 9, a pharmacokinetic analysis was also conducted. In this study (Study reference 15204), all animals were injected SC on Day 1 with 2 mg/kg peptide content of V4, Cys-FMS-V4 and Apraglutide. Blood samples were collected at 2, 8, 12, 24, 36, 48, 72, 96, 120 hours, and Days 7, 8, 9, 10, 11, 12, 13 and 14 post-dose administration and subsequently taken to LC-MS/MS analysis to determine plasma levels of each compound. For Cys-FMS-V4, a 2-analyte method was applied to determine the plasma concentrations of both the full conjugate and the V4 that was hydrolyzed from it (V4 hydrolyzed). Plasma concentrations (μM), as measured by using the LC-MS/MS method, of V4 peptide, Cys-FMS-V4, hydrolyzed V4, and Apraglutide are presented in FIG. 17.

[2] = system: intestine epithelium (crypts plus villi); experiment: Crypts plus villi length, histopathology of small intestine; format: in vivo, SD rats
Procedure: In addition to PEG30-FMS-V4 and PEG30-Fmoc-V4 that have been pharmacology evaluated by small intestinal weight evaluation (As shown in Example 5), four other reversible PEGylated variant 4 (“V4”) conjugates and two reversible linker-V4 conjugates were synthesized. All the above were injected to 6 normal SD rats/group once at 2 mg/kg (peptide dose), while on the 6th day, animals were scarified, and the small intestine was weighted followed by histopathology evaluation. […] Therefore, slices from three areas of the intestine (duodenum, jejunum and ilium) were stained with hematoxylin and eosin and at least 7 Crypts+Villi length/slice were measured. The averaged Villi+Crypt length of each treatment group (n=6) was compared to the vehicle group (negative control) and calculated as percentage increase over vehicle. […]
An additional study to evaluate the efficacy and the longevity of V4 and Cys-FMS-V4 was conducted (Study reference 15204) in which the animals were sacrificed on Days 6 (N=6), 10 (N=4) and 14 (N=4). This experiment measured the pharmacological response compared to the commercially approved SBS treatment drug Gattex. In addition, two new conjugates were tested by conjugating V4 to reduced OSu-linker and Cys-FMS-V4 purified from resin. The animals were injected with a single SC injection at Day 1 with 2 mg/kg peptide content of V4, Cys-FMS-V4, FMS-OSu-V4, Apraglutide and Glepaglutide while Gattex was SC injected daily at 2.5 mg/kg peptide content. […]

[3] = Solubility and stability in different buffer systems, concentrations, incubation and freeze-thaw; format: physicochemical; details: Histidine and NaPi, pH 6.8 to 7.5; 1-10 mg/mL; up to 3 days at 37° C.; up to three freeze-thaw cycles
[4] = 2-compartmental pharmacokinetic modelling (MONOLIX 2018R2); format: in vivo, rat; details: rat, in vivo
Procedure: An in-depth PK modeling was performed to address the unexpected differences in half life, distribution, and pharmacological effect between V4, Cys-FMS-V4, and Apraglutide in the rat model. The analysis was performed with MONOLIX 2018R2 suite using a 2-compartmental pharmacokinetic model. The data used in this analysis was comprised from 3 independent experiments (data is presented as their average). The concentration versus time data of V4 that was formed from the Cys-FMS-V4 conjugate (the hydrolyzed peptide) was described appropriately using the values of the pharmacokinetic parameters of V4 peptide. Thus, the disposition of the hydrolyzed V4 was identical to that of the V4 peptide following the IV and SC administration.
The pharmacokinetics of Apraglutide in our studies was determined after SC administration. […] Based on this assumption, the values of volumes of distribution and clearance (Vpept, Vss, Vbeta, and CL) were calculated for Apraglutide (Table 13). The values of the other parameters of Apraglutide in Table 14 (the rate constants and the half-lives) are not dependent on this assumption.

AUC(0-inf) [1]: 14.6 µM·h
AUC(0-t) [1]: 13.7 µM·h
CL/F [1]: 0.617 mL/min/kg
Cmax [1]: 490 nM
Time post injection up to which detectable in blood [1]: ≤ 240 h
Tmax [1]: 12 h
Vd/F [1]: 4.07 L/kg
half-life [1]: 77 h
CMC perspective, combining purity and solubility [3]: outperformed the rest of the peptides
Fold increase of Vbeta as compared to the initial volume of distribution [4]: ~51 fold
Fold increase of Vss as compared to the initial volume of distribution [4]: ~8 fold
Ratio (V4/Apraglutide) of CL [4]: 0.96
Ratio (V4/Apraglutide) of Fpept [4]: 0.54
Ratio (V4/Apraglutide) of Vbeta [4]: 1.52
Ratio (V4/Apraglutide) of Vpept [4]: 0.40
Ratio (V4/Apraglutide) of Vss [4]: 1.68
Ratio (V4/Apraglutide) of k12 [4]: 11.60
Ratio (V4/Apraglutide) of k21 [4]: 1.54
Ratio (V4/Apraglutide) of ka—pept [4]: 0.44
Ratio (V4/Apraglutide) of kpepte [4]: 2.40
Ratio (V4/Apraglutide) of t1/2 absorption [4]: 2.28
Ratio (V4/Apraglutide) of t1/2 alpha [4]: 0.17
Ratio (V4/Apraglutide) of t1/2 beta [4]: 1.57
k12 [4]: 0.0749 h⁻¹
k21 [4]: 0.0105 h⁻¹
ka—pept [4]: 0.0729 h⁻¹
kpepte [4]: 0.205 h⁻¹
t1/2 beta [4]: 173.2 h
bioavailability ([4]; Bioavailability lower in comparison to Apraglutide): 46%
Bioavailability following SC injection (reaching the systemic circulation) ([4]; sc): 40.1%
CL ([4]; sc): 0.215 mL/min/kg
Fpept ([4]; sc): 0.401
Local degradation of the dose at the injection site ([4]; sc): ~60%
Vd ([4]; sc): 3.21 L/kg
Vpept ([4]; sc): 0.0627 L/kg
Vss ([4]; sc): 0.51 L/kg
t1/2 absorption ([4]; sc): 9.51 h
bioavailability ([4]; sc, Bioavailability following SC injection (reaching the systemic circulation)): ~40%
half-life ([4]; sc, t1/2 absorption): 9.51 h
half-life ([4]; t1/2 alpha): 1.29 h
half-life ([4]; t1/2 beta): 173 h
Structure (SMILES): CCCC[C@H](NC(=O)[C@H](CCC(=O)O)NC(=O)[C@H](CC(=O)O)NC(=O)[C@H](CO)NC(=O)[C@H](Cc1ccccc1)NC(=O)[C@H](CO)NC(=O)CNC(=O)[C@H](CCC(=O)O)NC(=O)CNC(=O)[C@@H](N)Cc1c[nH]cn1)C(=O)N[C@@H](CC(N)=O)C(=O)N[C@H](C(=O)N[C@H](C(=O)N[C@@H](CC(C)C)C(=O)N[C@@H](CC(=O)O)C(=O)N[C@@H](CC(C)C)C(=O)N[C@@H](CC(C)C)C(=O)N[C@@H](C)C(=O)N[C@@H](C)C(=O)N[C@@H](CCCNC(=N)N)C(=O)N[C@@H](CC(=O)O)C(=O)N[C@@H](Cc1ccccc1)C(=O)N[C@H](C(=O)N[C@@H](CC(N)=O)C(=O)N[C@@H](Cc1c[nH]c2ccccc12)C(=O)N[C@@H](CC(C)C)C(=O)N[C@H](C(=O)N[C@@H](CCC(N)=O)C(=O)N[C@H](C(=O)N[C@@H](CCCCN)C(=O)N[C@H](C(=O)N[C@H](C(=O)N[C@@H](CC(=O)O)C(N)=O)[C@@H](C)O)[C@@H](C)CC)[C@@H](C)O)[C@@H](C)CC)[C@@H](C)CC)[C@@H](C)CC)[C@@H](C)O [Variant 4] (H-HGEGSFSDE[Nle]NTILDLLAARDFINWLIQTKITD-NH2)
Percent increase of Crypts+Villi length over vehicle (FIG. 3) ([2]; Study 15201, 0.5 and 2 mg/kg peptide dose once, 6 days after injection): dose dependent pharmacology effect on the intestine epithelium
Crypts plus villi length percent increase over vehicle (FIG. 13) ([2]; Study 15203, single SC 2 mg/kg on Day 1, Days 6 and 10, listed as V4, 2 mg/kg): the most pronounced effect on crypts plus villi length over vehicle compared to Apraglutide and Glepaglutide; also recorded: prolonged activity 10 days following a single SC injection
Crypts plus villi length percent increase over vehicle (FIG. 14) ([2]; Study 15204, single SC 2 mg/kg on Day 1, Days 6, 10 and 14): the most prominent and prolonged effect on villi and crypts length up to 14 days from injection
Villi plus crypts length percent increase over vehicle (FIG. 16) ([2]; Study 15205, single SC 0.5, 2.0 or 8.0 mg/kg, Days 3, 7 and 14): comparable intestinotrophic response on villi and crypt length at all three dose levels
